From ChEMBL document CHEMBL1275523 (Antimicrob Agents Chemother, 2008)

Tests used:
Format in all cases: cell-based
[1] = molecular target: T1, Sialidase-3 (Homo sapiens, UniProt Q9UQ49); experiment: Inhibition of human NEU3 expressed in HEK293 cells by fluorometric high-performance liquid chromatography using ganglioside GM3 substrate
T1 sequence (Q9UQ49 whole entry): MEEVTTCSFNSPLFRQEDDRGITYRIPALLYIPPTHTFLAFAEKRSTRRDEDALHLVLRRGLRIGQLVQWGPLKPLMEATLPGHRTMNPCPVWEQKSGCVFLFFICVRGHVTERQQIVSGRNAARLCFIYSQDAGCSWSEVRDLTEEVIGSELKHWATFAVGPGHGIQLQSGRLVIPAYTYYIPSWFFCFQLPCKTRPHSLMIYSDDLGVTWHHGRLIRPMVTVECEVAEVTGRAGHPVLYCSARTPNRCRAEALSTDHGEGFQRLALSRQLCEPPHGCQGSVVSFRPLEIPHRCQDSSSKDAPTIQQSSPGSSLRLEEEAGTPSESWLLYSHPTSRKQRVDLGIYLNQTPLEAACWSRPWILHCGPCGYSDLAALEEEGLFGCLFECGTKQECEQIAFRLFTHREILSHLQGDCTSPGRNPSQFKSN

[2] = molecular target: Sialidase-1 (Homo sapiens, UniProt Q99519); experiment: Inhibition of human NEU1 expressed in HEK293 cells by fluorometric high-performance liquid chromatography using 4MU-NeuAc substrate
[3] = molecular target: T1, Sialidase-3; experiment: Inhibition of human NEU3 expressed in HEK293 cells by fluorometric high-performance liquid chromatography using 4MU-NeuAc substrate
[4] = molecular target: T2, Sialidase-4 (Homo sapiens, UniProt Q8WWR8); experiment: Inhibition of human NEU4 expressed in HEK293 cells by fluorometric high-performance liquid chromatography using 4MU-NeuAc substrate
T2 sequence (Q8WWR8 whole entry): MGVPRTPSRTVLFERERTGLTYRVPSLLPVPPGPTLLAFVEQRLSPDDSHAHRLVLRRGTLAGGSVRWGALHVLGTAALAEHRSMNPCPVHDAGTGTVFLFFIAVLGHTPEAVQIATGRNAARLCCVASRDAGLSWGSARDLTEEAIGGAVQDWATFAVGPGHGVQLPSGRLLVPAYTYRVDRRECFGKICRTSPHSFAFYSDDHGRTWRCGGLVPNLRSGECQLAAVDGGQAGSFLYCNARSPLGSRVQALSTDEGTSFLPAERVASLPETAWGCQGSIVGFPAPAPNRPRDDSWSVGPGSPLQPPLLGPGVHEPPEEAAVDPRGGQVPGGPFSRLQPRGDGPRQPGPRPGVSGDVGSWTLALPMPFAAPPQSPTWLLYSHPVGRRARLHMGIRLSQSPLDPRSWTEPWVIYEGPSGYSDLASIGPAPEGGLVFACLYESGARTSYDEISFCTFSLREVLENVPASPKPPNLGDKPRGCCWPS

Row | Structure (SMILES) | IC50 [1] [µM] | IC50 [2] [µM] | IC50 [3] [µM] | IC50 [4] [µM]
1 | CC(=O)N[C@H]1[C@H]([C@H](O)[C@H](O)CO)OC(C(=O)O)=C[C@@H]1O [NEU5AC2EN] | 70.3 | – | – | –
2 | CCOC(=O)C1=C[C@@H](OC(CC)CC)[C@H](NC(C)=O)[C@@H](N)C1 [OSELTAMIVIR] | – | > 10000 | > 10000 | > 10000
3 | CC(=O)N[C@H]1[C@H]([C@H](O)[C@H](O)CO)OC(C(=O)O)=C[C@@H]1N=C(N)N [ZANAMIVIR] | – | 2710 | – | –
